Test results taken from US11419852B2, “Beta-lactam compounds or salts thereof for use in long-acting prevention or treatment of a glucose metabolism disorder” (GLYCOLYSIS BIOMED CO., LTD., priority 2019, dated 2022).
Marks after values point to notes of the source that are not given here.

Tests used:
Type in all cases: in vivo
db/db mice [1] = assay: Plasma biochemical parameters (AST, ALT, BUN, Cr, HbA1c)
Description: Inflammatory markers such as serum aspartate aminotransferase (AST), alanine aminotransferase (ALT), blood urea nitrogen (BUN), creatinine (Cr), and hemoglobin Alc (HbAlc) were measured using a BMC-Hitachi 717 chemistry auto analyzer.

db/db mice [2] = assay: Fasting plasma glucose (FPG) measurement; details: for Average FPG level: dosing 6 weeks
Description: Four to five weeks old db/db mice (BKS.Cg-Dock7^m+/+Lepr^db/JNarl) and m/m mice (BKS.Cg-Dock7^m+/Dock7^m+) were obtained from National Laboratory Animal Center (Nangang, Taipei, Taiwan). These animals were maintained in a facility with a 12-h dark-light cycle at 24±2° C. and 65±5% humidity and were provided food (No. 5001; PMI Nutrition International, Brentwood, Mo.) and water ad libitum. For experiments, the average body weight of m/m mice was approximately 20 g, and that of db/db mice was approximately 30 g.
For each mouse, blood was sampled from the tail vein and measured for FPG levels using a blood glucose meter (OneTouch UltraEasy, Johnson & Johnson, USA) at a predestined time point.

[3] = Body weight of mice recorded weekly; details: for Body weight: dosing 6 weeks
Description: Four to five weeks old db/db mice (BKS.Cg-Dock7^m+/+Lepr^db/JNarl) and m/m mice (BKS.Cg-Dock7^m+/Dock7^m+) were obtained from National Laboratory Animal Center ([…], Taiwan). […] PMI Nutrition International, Brentwood, Mo.) and water ad libitum. […] The mouse body weight (bw) and the amounts of water and food intake were recorded weekly for the entire study period.

[4] = Ex 1: db/db mice, ertapenem i.p. 0.41 mg/g bw/day, week 3
[5] = Ex 3, after the treatments had been stopped for 6 weeks
[6] = Ex 3: db/db mice, daily dosing 3 weeks at doses of Table 10, week 9
[7] = Ex 2 G4 db/db, DMH i.p. 0.1 mg/g bw/day, week 3
[8] = Ex 2 G4 db/db, DMH i.p. 0.1 mg/g bw/day, week 6
[9] = Ex 2 G4 db/db, DMH i.p. 0.1 mg/g bw/day, week 9
[10] = Ex 2 G4 db/db, DMH i.p. 0.1 mg/g bw/day, week 12

## C[C@@H](O)[C@H]1C(=O)N2C(C(=O)O)=C(S[C@@H]3CN[C@H](C(=O)Nc4cccc(C(=O)O)c4)C3)[C@H](C)[C@H]12 [DMH, ertapenem]
db/db mice [1]; Ex 1, week 3
  Levels of AST, ALT, BUN, and HbA1c in the diabetes mice: significantly reduced
db/db mice [1]; [4]
  ALT: 34 ± 6 U/L
  AST: 61 ± 7 U/L
  BUN: 27 ± 2 mg/dL
  Creatinine: 0.57 ± 0.02 mg/dL
  HbA1c: 6.1 ± 0.8 %
db/db mice [1]; [5]
  Level of ALT: reduce
  Level of AST: reduce
  Level of HbA1c: reduce
db/db mice [1]; [6]
  ALT: 79 ± 8^bc U/L
  AST: 127 ± 13^ad U/L
  BUN: 44 + 2^d mg/dL
  Creatinine: 0.467 ± 0.01^bd mg/dL
  HbA1c: 5.8 ± 0.3^d %
db/db mice [2]; Ex 2, db/db mice
  Duration of blood-glucose-lowering effect after treatment was stopped: at least 6 weeks
db/db mice [2]; Ex 2, week 3, 0.1 mg/g bw and 0.4 mg/g bw vs metformin 0.3 mg/g bw
  Lowering blood glucose levels (FPG) in db/db mice: as effective as metformin
db/db mice [2]; Ex 2 G4 db/db, DMH i.p. 0.1 mg/g bw/day, week 0
  Average FPG level: 139 ± 21^b
db/db mice [2]; [7]
  Average FPG level: 134 ± 21^b
db/db mice [2]; [8]
  Average FPG level: 219 ± 36^b
db/db mice [2]; [9]
  Average FPG level: 217 ± 37^bc
db/db mice [2]; [10]
  Average FPG level: 154 ± 30^ab
db/db mice [2]; Ex 2 G4 db/db, DMH i.p. 0.1 mg/g bw/day, week 16
  Average FPG level: 126 ± 43^ab
db/db mice [2]; Ex 2 G4 db/db, DMH i.p. 0.1 mg/g bw/day, week 18
  Average FPG level: 263 ± 58^b
db/db mice [2]; Ex 2 G5 db/db, DMH i.p. 0.2 mg/g bw/day, week 0
  Average FPG level: 142 ± 20^b
db/db mice [2]; Ex 2 G5 db/db, DMH i.p. 0.2 mg/g bw/day, week 3
  Average FPG level: 158 ± 25^bc
db/db mice [2]; Ex 2 G5 db/db, DMH i.p. 0.2 mg/g bw/day, week 6
  Average FPG level: 166 ± 21^b
db/db mice [2]; Ex 2 G5 db/db, DMH i.p. 0.2 mg/g bw/day, week 9
  Average FPG level: 212 ± 30^bc
db/db mice [2]; Ex 2 G5 db/db, DMH i.p. 0.2 mg/g bw/day, week 12
  Average FPG level: 191 ± 42^bc
db/db mice [2]; Ex 2 G5 db/db, DMH i.p. 0.2 mg/g bw/day, week 16
  Average FPG level: 154 ± 56^ab
db/db mice [2]; Ex 2 G5 db/db, DMH i.p. 0.2 mg/g bw/day, week 18
  Average FPG level: 308 ± 51^b
db/db mice [2]; Ex 2 G6 db/db, DMH i.p. 0.4 mg/g bw/day, week 0
  Average FPG level: 141 ± 23^b
db/db mice [2]; Ex 2 G6 db/db, DMH i.p. 0.4 mg/g bw/day, week 3
  Average FPG level: 121 ± 23^ab
db/db mice [2]; Ex 2 G6 db/db, DMH i.p. 0.4 mg/g bw/day, week 6
  Average FPG level: 175 ± 30^b
db/db mice [2]; Ex 2 G6 db/db, DMH i.p. 0.4 mg/g bw/day, week 9
  Average FPG level: 172 ± 27^b
db/db mice [2]; Ex 2 G6 db/db, DMH i.p. 0.4 mg/g bw/day, week 12
  Average FPG level: 166 ± 26^ac
db/db mice [2]; Ex 2 G6 db/db, DMH i.p. 0.4 mg/g bw/day, week 16
  Average FPG level: 108 ± 22^ab
db/db mice [2]; Ex 2 G6 db/db, DMH i.p. 0.4 mg/g bw/day, week 18
  Average FPG level: 266 ± 35^b
[3]; Ex 2, 0.1 mg/g bw and 0.4 mg/g bw
  Effect on body weight in db/db mice: positive effects of body weight lowering
[3]; Ex 2 G3 db/db, 0.3 mg/g bw/day (row printed 0.3 DMH), week 14
  Body weight: 43.94 ± 1.54^b
[3]; Ex 2 G3 db/db, 0.3 mg/g bw/day (row printed 0.3 DMH), week 15
  Body weight: 46.46 ± 1.39^b
[3]; Ex 2 G3 db/db, 0.3 mg/g bw/day (row printed 0.3 DMH), week 16
  Body weight: 47.68 ± 1.32^b
[3]; Ex 2 G3 db/db, 0.3 mg/g bw/day (row printed 0.3 DMH), week 17
  Body weight: 48.31 ± 1.38^b
[3]; Ex 2 G3 db/db, 0.3 mg/g bw/day (row printed 0.3 DMH), week 18
  Body weight: 49.57 ± 1.47^b
[3]; Ex 2 G3 db/db, 0.3 mg/g bw/day (row printed 0.3 DMH), week 19
  Body weight: 51.98 ± 1.66^b
[3]; Ex 2 G4 db/db, DMH i.p. 0.1 mg/g bw/day, Baseline
  Body weight: 29.44 ± 2.09^b
[3]; Ex 2 G4 db/db, DMH i.p. 0.1 mg/g bw/day, week 1
  Body weight: 29.21 ± 2.01^b
[3]; Ex 2 G4 db/db, DMH i.p. 0.1 mg/g bw/day, week 2
  Body weight: 29.95 ± 1.79^b
[3]; [7]
  Body weight: 32.38 ± 1.38^b
[3]; Ex 2 G4 db/db, DMH i.p. 0.1 mg/g bw/day, week 4
  Body weight: 33.49 ± 1.13^b
[3]; Ex 2 G4 db/db, DMH i.p. 0.1 mg/g bw/day, week 5
  Body weight: 35.72 ± 1.01^b
[3]; [8]
  Body weight: 36.73 ± 0.95^b
[3]; Ex 2 G4 db/db, DMH i.p. 0.1 mg/g bw/day, week 7
  Body weight: 36.68 ± 0.83^b
[3]; Ex 2 G4 db/db, DMH i.p. 0.1 mg/g bw/day, week 8
  Body weight: 37.83 ± 0.77^b
[3]; [9]
  Body weight: 38.46 ± 0.8^b
[3]; Ex 2 G4 db/db, DMH i.p. 0.1 mg/g bw/day, week 10
  Body weight: 39.43 ± 0.81^b
[3]; Ex 2 G4 db/db, DMH i.p. 0.1 mg/g bw/day, week 11
  Body weight: 40.86 ± 0.82^b
[3]; [10]
  Body weight: 42.59 ± 0.87^b
[3]; Ex 2 G4 db/db, DMH i.p. 0.1 mg/g bw/day, week 13
  Body weight: 44.21 ± 0.99^b
[3]; Ex 2 G4 db/db, DMH i.p. 0.1 mg/g bw/day, week 14
  Body weight: 43.56 ± 1.08^b
